Experimental data as given in paper PMC4814829, “Design, synthesis, crystallization and biological evaluation of new symmetrical biscationic compounds as selective inhibitors of human Choline Kinase α1 (ChoKα1)” (Scientific Reports, 2016).

Tests used:
human ChoKα1 = biological target: T1, human ChoKα1 (Homo sapiens, UniProt P35790); test: Tryptophan fluorescence quenching; format: binding; conditions: mean ± S.D. of at least three independent experiments; 25 °C, enzyme 1 μM; read-out: HsChoKα1 Kd
T1 construct: made in house
T1 sequence (P35790 whole entry): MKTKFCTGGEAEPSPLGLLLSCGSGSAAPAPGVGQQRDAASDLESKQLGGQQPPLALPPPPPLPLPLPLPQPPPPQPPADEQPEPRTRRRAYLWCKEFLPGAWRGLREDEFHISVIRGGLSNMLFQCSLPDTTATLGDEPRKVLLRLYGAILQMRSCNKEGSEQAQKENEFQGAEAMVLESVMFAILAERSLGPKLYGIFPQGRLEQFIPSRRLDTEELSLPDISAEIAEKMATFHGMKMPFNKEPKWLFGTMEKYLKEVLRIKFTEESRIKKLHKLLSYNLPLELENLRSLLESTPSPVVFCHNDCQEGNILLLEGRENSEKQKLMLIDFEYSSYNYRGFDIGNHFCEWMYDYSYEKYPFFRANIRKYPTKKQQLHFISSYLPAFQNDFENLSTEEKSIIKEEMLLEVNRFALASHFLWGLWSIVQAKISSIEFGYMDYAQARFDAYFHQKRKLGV
Procedure: All compounds were prepared in 100% DMSO. Their Kds against human ChoKα1 were measured by monitoring the quenching of tryptophan fluorescence. All experiments were performed in a Cary Eclipse spectrofluorometer (Varian) at 25 °C with the enzymes at 1 μM, and concentrations of compounds varying from 0.1 to 5 μM for ChoKα1 in 25 mM Tris, 150 mM NaCl, pH 7.5. Fluorescence emission spectra were recorded in the 300–400 nm range with an excitation wavelength of 280 nm, with slit width of 5 nm. Controls were determined by incubating the enzymes with equivalent amounts of DMSO. As indicated previously, data analysis was performed in Prism (GraphPad software) considering a model with a single binding site (Eq. 1), where F0 is the intrinsic fluorescence of the enzyme in the absence of quencher (Q), F1 is the observed fluorescence at a given quencher concentration, fa is the fractional degree of fluorescence, and Kd is the dissociation constant.

purified human ChoKα1 = purified human ChoKα1 (Homo sapiens, UniProt P35790); test: Determination of human choline kinase α1 activity ([methyl-14C]choline incorporation into phosphocholine); format: biochemical; conditions: mean ± SEM, three independent experiments; read-out: IC50 ChoKα1 purified
Chain of purified human ChoKα1 (P35790 whole entry): as above
Procedure: The effect of the different inhibitors on human choline kinase (ChoK) was assayed in ChoKα1 purified as previously described[32]. In each experiment DMSO-assays were always run in parallel as a control. DMSO in no case exceeded a concentration of 0.1% in order to avoid unspecific ChoK inhibition. ChoK activity was assayed by measuring the rate of incorporation of ^14C from [methyl-^14C]choline into phosphocholine both in the presence or absence of different inhibitor concentrations. Briefly, the final reaction mixture contained 100 mM Tris (pH 8.5), 10 mM MgCl2, and 10 mM ATP, and 20 ng of purified ChoKα1. […] The assay was stopped by immersing the reaction tubes in boiling water for 3 min. Aliquots of the reaction mixture were applied to the origin of Silica Gel plates in the presence of phosphocholine (0.1 mg) and choline (0.1 mg) as carriers. The chromatography was developed in methanol/0.6% NaCl/28% NH4OH in water (50:50:5, v/v/v) as solvent. Phosphocholine was visualized under exposure to iodine vapor and the corresponding spot was scraped and transferred to scintillation vials for measurement of radioactivity by a Beckman 6000-TA (Madrid, Spain) liquid-scintillation counter. At least three experiments were performed in all assays.

PBL (+Pha) = test: Antiproliferative assay in non-tumoral cells (MTT); format: cell-based; conditions: Homo sapiens, non-tumoral cells stimulated with phytohematoagglutinin, 72 h, mean ± SEM
How it was run: (§1)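 Healthy-donor PBMC from density gradient, non-adherent cells at 5 × 10^5 cells/mL in RPMI-1640/10% FBS; proliferating cultures stimulated with 2.5 μg/mL PHA, resting cultures unstimulated. Compounds at different concentrations for 72 h; viability by MTT.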

PBL (resting) = test: Antiproliferative assay in non-tumoral cells (MTT); format: cell-based; conditions: Homo sapiens, 72 h, mean ± SEM
How it was run: as §1

Human fibroblasts = test: Antiproliferative assay in non-tumoral cells; format: cell-based; conditions: Fibroblast, mean ± SEM
Source text: Human fibroblasts from foreskin were isolated as previously described[58] and maintained in DMEM medium with 10% fetal bovine serum added.

HUVEC = test: Antiproliferative assay in non-tumoral cells; format: cell-based; conditions: Homo sapiens, mean ± SEM
Procedure: Human Umbilical Vein Endothelial cells (HUVEC), were prepared from human umbilical-cord veins, as previously described. The adherent cells were maintained in M200 medium added by LSGS (low serum growth supplement), containing FBS, hydrocortisone, hEGF, bFGF, heparin, gentamycin/amphotericin (Life Technologies, Monza, Italy). Once confluent, the cells were detached by trypsin–EDTA solution and used in experiments from the first to sixth passages.

[1] = test system: panel of nine different human tumor-cell lines; test: Antiproliferative activity against the panel of nine human tumor-cell lines; format: cell-based; conditions: Homo sapiens; range or bound over all tested cell lines; read-out: GI50 across the tumor-cell line panel
Procedure: (§2) Human T-cell leukemia (Jurkat), human B-cell leukemia (RS 4,11) and human promyelocytic leukemia (HL-60) cells were grown in RPMI-1640 medium (Gibco, Milan, Italy). Breast adenocarcinoma (MCF-7 and MDA-MB-231), human non-small cell lung carcinoma (A549), human cervix carcinoma (HeLa), human prostate adenocarcinoma (PC-3), and human colon adenocarcinoma (HT-29) cells were grown in DMEM medium (Gibco, Milan, Italy). Both media were supplemented with 115 units/mL of penicillin G (Gibco, Milan, Italy), 115 μg/mL of streptomycin (Invitrogen, Milan, Italy) and 10% fetal bovine serum (Invitrogen, Milan, Italy). Stock solutions (10 mM) of the different compounds were obtained by dissolving them in DMSO. Individual wells of 96-well tissue-culture microtiter plates were inoculated with 100 μL of complete medium containing 8 × 10^3 cells. The plates were incubated at 37 °C in a humidified 5% CO2 incubator for 18 h prior to the experiments. After medium removal, 100 μL of fresh medium containing the test compound at different concentrations was added to each well and incubated at 37 °C for 72 h. The percentage of DMSO in the medium in no case exceeded 0.25%.

HeLa cells = test: Trypan blue exclusion assay; format: cell-based, human; conditions: concentration-dependent
Procedure: as §2

MDA-MB-231 cells [2] = test: Trypan blue exclusion assay; format: cell-based, human; conditions: MDA-MB-231, concentration-dependent
Procedure: as §2

Jurkat cells [3] = test: Cell-cycle distribution analysis (PI, flow cytometry); format: cell-based, human
Procedure: (§3) For flow-cytometric analysis of the DNA content, 5 × 10^5 HeLa or Jurkat cells in exponential growth were treated with different concentrations of the test compounds for 24 and 48 h. After the incubation period, the cells were collected, centrifuged, and fixed with ice-cold ethanol (70%). The cells were then treated with lysis buffer containing RNAse A and 0.1% Triton X-100, and then stained with propidium iodide (PI). Samples were analyzed in a Cytomics FC500 flow cytometer (Beckman Coulter). DNA histograms were analyzed using MultiCycle for Windows (Phoenix Flow Systems).

MCF-7 cells [4] = test: as above; format: cell-based, human
Procedure: [The source words this procedure for another cell line and reports this cell line under the same test.] as §3

MDA-MB-231 cells [5] = test: as above; format: cell-based, human
Procedure: [The source words this procedure for another cell line and reports this cell line under the same test.] as §3

Jurkat cells [6] = test: Annexin-V/PI assay; format: cell-based, human; conditions: 72 h, positive controls Cis-Pt 50 μM, Etoposide 5 μM
Procedure: (§4) Surface exposure of PS on apoptotic cells was measured by flow cytometry with Cytomics FC500 (Beckman Coulter) by adding simultaneously annexin-V conjugated to fluorescein isothiocyanate (FITC) and PI to cells according to the manufacturer′s instructions (Annexin-V Fluos, Roche Diagnostic).

MCF-7 cells [7] = test: Annexin-V/PI assay; format: cell-based, human; conditions: MCF-7, 72 h; positive controls Cis-Pt 50 μM, Etoposide 5 μM
Procedure: as §4

MDA-MB-231 cells [8] = test: Annexin-V/PI assay; format: cell-based, human; conditions: MDA-MB-231, 72 h; positive controls Cis-Pt 50 μM, Etoposide 5 μM
Procedure: as §4

CN(C)c1cc[n+](Cc2ccc(OCCOc3ccc(C[n+]4ccc(N(C)C)cc4)cc3)cc2)cc1.[Br-].[Br-] [Compound 10a, 1,1′-(((ethane-1,2-diylbis(oxy))bis(4,1-phenylene))bis(methylene))bis(4-(dimethylamino)pyridinium) bromide]
Kd (human ChoKα1): 700 ± 80 nM
IC50 (purified human ChoKα1): 1000 ± 10 nM
GI50 (PBL (+Pha)): 34 ± 7 nM
GI50 (PBL (resting)): 1500 ± 640 nM
GI50 (Human fibroblasts): 5800 ± 1300 nM
GI50 (HUVEC): 5100 ± 430 nM
GI50 [1]: 27 to 120 nM
Cell growth by trypan blue count (HeLa cells): significantly inhibited cell growth
Cell growth by trypan blue count (MDA-MB-231 cells [2]): significantly inhibited cell growth
Cells with hypodiploid DNA content (apoptotic cells by cell-cycle analysis) (Jurkat cells [3]): not detected
Cell-cycle effect (G1 phase) (Jurkat cells [3]; 24 h, concentration-dependent): induced a G1 arrest of the cell cycle
Cells with hypodiploid DNA content (apoptotic cells by cell-cycle analysis) (MCF-7 cells [4]; MCF-7): not detected
Cell-cycle effect (G1 phase) (MCF-7 cells [4]; MCF-7, 24 h, concentration-dependent): induced a G1 arrest of the cell cycle
Cells with hypodiploid DNA content (apoptotic cells by cell-cycle analysis) (MDA-MB-231 cells [5]; MDA-MB-231): not detected
Cell-cycle effect (G1 phase) (MDA-MB-231 cells [5]; MDA-MB-231, 24 h, concentration-dependent): induced a G1 arrest of the cell cycle
Apoptotic cells (annexin-V/PI) (Jurkat cells [6]): modest increment in apoptotic cells
Apoptotic cells (annexin-V/PI) (MCF-7 cells [7]): not to be significantly different from that of the untreated cells
Apoptotic cells (annexin-V/PI) (MDA-MB-231 cells [8]): not to be significantly different from that of the untreated cells
